The results in this text go back to patent US20230040182A1, “ARYL HETEROBICYCLIC COMPOUNDS AS Kv1.3 POTASSIUM SHAKER CHANNEL BLOCKERS” (priority 2019, published 2023).

Each structure is given as a SMILES string.

The target in the test is T1, Kv1.3 potassium channel (Homo sapiens, UniProt P22001).
T1 construct: expressed in transfected cells
The test is described as follows: Kv1.3 potassium channel blocker activity, automated whole-cell patch clamp (Patchliner). It counts as cell-based. The note with it: CHO-K1 cells stably expressing Kv1.3; whole-cell current, Hill fit. How it is done:
Example 9. Evaluation of Kv1.3 Potassium Channel Blocker Activities
This assay is used to evaluate the disclosed compounds' activities as Kv1.3 potassium channel blockers.
CHO-K1 cells stably expressing Kv1.3 were grown in DMEM containing 10% heat-inactivated FBS, 1 mM Sodium Pyruvate, 2 mM L-Glutamine and G418 (500 μg/ml). Cells were grown in culture flasks at 37° C. in a […] incubator.
The cells were bathed in an extracellular solution containing 140 mM NaCl, 4 mM KCl, 2 mM CaCl2, 1 mM MgCl2, 5 mM Glucose, 10 mM HEPES; pH adjusted to 7.4 with NaOH; 295-305 mOsm. The internal solution contained 50 mM KCl, 10 mM NaCl, 60 mM KF, 20 mM EGTA, 10 mM HEPES; pH adjusted to 7.2 with KOH; 285 mOsm. All compounds were dissolved in DMSO at 30 mM. Compound stock solutions were freshly diluted with external solution to concentrations of 30 nM, 100 nM, 300 nM, 1 μM, 3 μM, 10 μM, 30 μM and 100 μM. The highest content of DMSO (0.3%) was present in 100 μM.
The currents were evoked by applying 100 ms depolarizing pulses from −90 mV (holding potential) to +40 mV were applied with 0.1 Hz frequency. Control (compound-free) and compound pulse trains for each compound concentration applied contained 20 pulses. 10-second breaks were used between pulse trains (see Table A below).
Whole-cell current recordings and compound application were enabled by means of an automated patch clamp platform Patchliner (Nanion Technologies GmbH). EPC 10 patch clamp amplifier (HEKA Elektronik Dr. Schulze GmbH) along with Patchmaster software (HEKA Elektronik Dr. Schulze GmbH) was used for data acquisition. Data were sampled at 10 kHz without filtering. Passive leak currents were subtracted online using a P/4 procedure (HEKA Elektronik Dr. Schulze GmbH). Increasing compound concentrations were applied consecutively to the same cell without washouts in between. Total compound incubation time before the next pulse train was not longer than 10 seconds. Peak current inhibition was observed during compound equilibration.
AUC and peak values were obtained with Patchmaster (HEKA Elektronik Dr. Schulze GmbH). To determine IC50, the last single pulse in the pulse train corresponding to a given compound concentration was used. Obtained AUC and peak values in the presence of compound were normalized to control values in the absence of compound. Using Origin (OridinLab), IC50 was derived from data fit to Hill equation: Icompound/Icontrol=(100−A)/(1+([compound]/IC50)nH)+A, where IC50 value is the concentration at which current inhibition is half-maximal, [compound] is the applied compound concentration, A is the fraction of current that is not blocked and nH is the Hill coefficient.
(In general: The patch-clamp technique gives a direct electrical read-out from membranes.)

T1 sequence (P22001 whole entry): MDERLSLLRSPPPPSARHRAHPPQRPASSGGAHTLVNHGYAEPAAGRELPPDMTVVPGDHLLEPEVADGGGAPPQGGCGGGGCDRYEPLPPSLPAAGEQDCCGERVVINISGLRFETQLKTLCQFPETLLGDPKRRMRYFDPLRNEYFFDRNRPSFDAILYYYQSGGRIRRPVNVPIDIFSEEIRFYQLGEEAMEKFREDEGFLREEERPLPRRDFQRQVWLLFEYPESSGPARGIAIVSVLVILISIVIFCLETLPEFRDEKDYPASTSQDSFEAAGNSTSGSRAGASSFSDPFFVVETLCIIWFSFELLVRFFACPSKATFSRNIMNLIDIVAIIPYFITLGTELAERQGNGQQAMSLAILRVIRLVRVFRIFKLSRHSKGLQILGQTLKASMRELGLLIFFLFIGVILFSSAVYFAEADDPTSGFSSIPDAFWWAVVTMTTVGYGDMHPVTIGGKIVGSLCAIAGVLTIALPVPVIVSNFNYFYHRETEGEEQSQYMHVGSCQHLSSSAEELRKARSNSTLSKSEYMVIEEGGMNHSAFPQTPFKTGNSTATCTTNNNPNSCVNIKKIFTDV

Take `O=C1[C@H]2C[C@H](O)CN2C(=O)[C@H]2C[C@@H](c3c(O)ccc(Cl)c3Cl)CCN12` (single isomer, unassigned; isomer 1) [Compound 23, 7-(2,3-dichloro-6-hydroxyphenyl)-2-hydroxyhexahydro-1H-pyrido[1,2-a]pyrrolo[1,2-d]pyrazine-5,11(5aH,11aH)-dione isomer 1]: the IC50 (usually the point on the concentration scale where inhibition reaches its midpoint) is below 10 µM.

Molecule `C[C@@H]1NC(=O)C2CC(c3c(O)ccc(Cl)c3Cl)CCN2C1=O` (stereo partly drawn) [Compound 4, (3S)-8-(2,3-dichloro-6-hydroxyphenyl)-3-methyl-octahydro-1H-pyrido[1,2-a]pyrazine-1,4-dione] had an IC50 below 10 µM.

As to `C[C@@H](O)[C@H]1NC(=O)[C@H]2C[C@@H](c3c(O)ccc(Cl)c3Cl)CCN2C1=O` [Compound 16, (3R,8S,9aR)-8-(2,3-dichloro-6-hydroxyphenyl)-3-[(1R)-1-hydroxyethyl]-hexahydro-2H-pyrido[1,2-a]pyrazine-1,4-dione], the IC50 was below 10 µM.

`C[C@H](O)[C@H]1NC(=O)[C@H]2C[C@@H](c3c(O)ccc(Cl)c3Cl)CCN2C1=O` [Compound 67, (3R,8S,9aR)-8-(2,3-dichloro-6-hydroxyphenyl)-3-[(1S)-1-hydroxyethyl]-hexahydro-2H-pyrido[1,2-a]pyrazine-1,4-dione]: the IC50 was below 10 µM.

As for `O=C1N[C@H](CO)C(=O)N2CC[C@H](c3c(O)cc(Cl)c(Cl)c3Cl)C[C@H]12` [Compound 66, (8S,9aR)3-((3R)-hydroxymethyl)-8-(2,3,4-trichloro-6-hydroxyphenyl)-hexahydro-2H-pyrido[1,2-a]pyrazine-1,4-dione], the IC50 is below 10 µM.

As for `CC[C@H]1NC(=O)[C@H]2C[C@@H](c3c(O)ccc(Cl)c3Cl)CCN2C1=O` [Compound 11, (8S,9aR)-8-(2,3-dichloro-6-hydroxyphenyl)-3-(3R)-ethyl-hexahydro-2H-pyrido[1,2-a]pyrazine-1,4-dione], the IC50 is below 1 µM.

The molecule `O=C1N[C@H](CO)C(=O)N2CC(c3c(O)ccc(Cl)c3Cl)CC12` (stereo partly drawn) [Compound 31, (3R)-7-(2,3-dichloro-6-hydroxyphenyl)-3-(hydroxymethyl)hexahydro-pyrrolo[1,2-a]pyrazine-1,4-dione] displayed an IC50 below 1 µM.

`O=C1[C@@H]2C[C@H](c3c(O)ccc(Cl)c3Cl)CCN2C(=O)[C@H]2CC(O)CCN12` (stereo partly drawn) [Compound 40, (2R,6aR,12aS)-2-(2,3-dichloro-6-hydroxyphenyl)-8-hydroxyoctahydro-dipyrido[1,2-a:1′,2′-d]pyrazine-6,12(2H,6aH)-dione] had an IC50 below 1 µM.

In turn, `O=C1[C@H]2C[C@@H](O)CN2C(=O)[C@H]2C[C@@H](c3c(O)ccc(Cl)c3Cl)CCN12` [Compound 59, (2R,5aR,7S,11aR)-7-(2,3-dichloro-6-hydroxyphenyl)-2-hydroxyhexahydro-1H-pyrido[1,2-a]pyrrolo[1,2-d]pyrazine-5,11(5aH,11aH)-dione] had an IC50 below 10 µM.

On to `CC(C)[C@@H](O)[C@@H]1NC(=O)[C@H]2C[C@@H](c3c(O)ccc(Cl)c3Cl)CCN2C1=O` [Compound 39, (3S,8S,9aR)-8-(2,3-dichloro-6-hydroxyphenyl)-3-[(1R)-1-hydroxy-2-methylpropyl]-hexahydro-2H-pyrido[1,2-a]pyrazine-1,4-dione], for which the IC50 is below 10 µM.

In the case of `Cc1c(Cl)ccc(O)c1[C@@H]1CCN2C(=O)[C@@H](CO)NC(=O)[C@@H]2C1` (relative stereo) [Compound 49, (8R,9aS)-rel-8-(3-chloro-6-hydroxy-2-methylphenyl)-3-((3R)-hydroxymethyl)-hexahydro-2H-pyrido[1,2-a]pyrazine-1,4-dione], the IC50 was below 10 µM.

Take `O=C1NCC(=O)N2CC[C@H](c3c(O)ccc(Cl)c3Cl)C[C@H]12` [Compound 56, (8S,9aR)-8-(2,3-dichloro-6-hydroxyphenyl)hexahydro-4H-pyrido[1,2-a]pyrazine-1,4(6H)-dione]: the IC50 was below 10 µM.

In turn, `Cc1ccc(O)c([C@@H]2CCN3C(=O)[C@@H](CO)NC(=O)[C@@H]3C2)c1Cl` (relative stereo) [Compound 28, (8R,9aS)-rel-8-(2-chloro-6-hydroxy-3-methylphenyl)-3-((3R)-hydroxymethyl)-hexahydro-2H-pyrido[1,2-a]pyrazine-1,4-dione] returned an IC50 below 1 µM.

The molecule `CC(C)[C@H]1NC(=O)[C@@H]2C[C@H](c3c(O)ccc(Cl)c3Cl)CCN2C1=O` [Compound 54, (8R,9aS)-8-(2,3-dichloro-6-hydroxyphenyl)-3-(3R)-isopropyl-hexahydro-2H-pyrido[1,2-a]pyrazine-1,4-dione] gave an IC50 below 1 µM.

Regarding `O=C1NNC(=O)N2CC[C@@H](c3c(O)ccc(Cl)c3Cl)C[C@@H]12` [Compound 33, (8R,9aS)-8-(2,3-dichloro-6-hydroxyphenyl)hexahydro-4H-pyrido[1,2-d][1,2,4]triazine-1,4(6H)-dione], the IC50 is below 1 µM.

In turn, `CC(C)[C@@H](O)[C@@H]1NC(=O)[C@@H]2C[C@H](c3c(O)ccc(Cl)c3Cl)CCN2C1=O` [Compound 42, (3S,8R,9aS)-8-(2,3-dichloro-6-hydroxyphenyl)-3-[(1R)-1-hydroxy-2-methylpropyl]-hexahydro-2H-pyrido[1,2-a]pyrazine-1,4-dione] showed an IC50 below 1 µM.

Turning to `C[C@H]1NC(=O)[C@H]2C[C@@H](c3c(O)ccc(Cl)c3Cl)CCN2C1=O` [Compound 62, (3R,8S,9aR)-8-(2,3-dichloro-6-hydroxyphenyl)-3-methyl-hexahydro-2H-pyrido[1,2-a]pyrazine-1,4-dione], the IC50 is below 10 µM.

On to `O=C1[C@H]2C[C@@H](c3c(O)ccc(Cl)c3Cl)CCN2C(=O)CN1C1CC(O)C1` (single isomer, unassigned; isomer 4) [Compound 5, 8-(2,3-dichloro-6-hydroxyphenyl)-2-[3-hydroxycyclobutyl]-hexahydropyrido[1,2-a]pyrazine-1,4-dione isomer 4], for which the IC50 is below 10 µM.

In turn, `O=C1[C@@H]2C[C@H](O)CN2C(=O)[C@H]2C[C@@H](c3c(O)ccc(Cl)c3Cl)CCN12` (single isomer, unassigned; isomer 3) [Compound 45, 7-(2,3-dichloro-6-hydroxyphenyl)-2-hydroxyhexahydro-1H-pyrido[1,2-a]pyrrolo[1,2-d]pyrazine-5,11(5aH,11aH)-dione isomer 3] yielded an IC50 below 10 µM.

`CC[C@H]1NC(=O)[C@@H]2C[C@H](c3c(O)ccc(Cl)c3Cl)CCN2C1=O` [Compound 51, (8R,9aS)-8-(2,3-dichloro-6-hydroxyphenyl)-3-(3R)-ethyl-hexahydro-2H-pyrido[1,2-a]pyrazine-1,4-dione] returned an IC50 below 30 µM.

`O=C1[C@H]2C[C@@H](c3c(O)ccc(Cl)c3Cl)CCN2C(=O)CN1CCO` [Compound 37, (8S,9aR)-8-(2,3-dichloro-6-hydroxyphenyl)-2-(2-hydroxyethyl)-hexahydropyrido[1,2-a]pyrazine-1,4-dione]: the IC50 is below 10 µM.

As for `O=C1[C@H]2[C@H](O)CCN2C(=O)[C@@H]2C[C@H](c3c(O)ccc(Cl)c3Cl)CCN12` (single isomer, unassigned; isomer 3) [Compound 69, 7-(2,3-dichloro-6-hydroxyphenyl)-1-hydroxyhexahydro-1H-pyrido[1,2-a]pyrrolo[1,2-d]pyrazine-5,11(5aH,11aH)-dione isomer 3], the IC50 was below 1 µM.

For the molecule `O=C1N[C@H](CCO)C(=O)N2CC[C@@H](c3c(O)ccc(Cl)c3Cl)C[C@@H]12` [Compound 70, (3R,8R,9aS)-8-(2,3-dichloro-6-hydroxyphenyl)-3-(2-hydroxyethyl)-hexahydro-2H-pyrido[1,2-a]pyrazine-1,4-dione], the IC50 is below 1 µM.

Regarding `CC1(C)NC(=O)C2CC(c3c(O)ccc(Cl)c3Cl)CCN2C1=O` (stereo not shown) [Compound 47, 8-(2,3-dichloro-6-hydroxyphenyl)-3,3-dimethyl-octahydro-1H-pyrido[1,2-a]pyrazine-1,4-dione], the IC50 is below 10 µM.

`O=C1N[C@@H](CO)C(=O)N2CC[C@H](c3c(O)ccc(Cl)c3Cl)C[C@H]12` [Compound 46, (3S,8S,9aR)-8-(2,3-dichloro-6-hydroxyphenyl)-3-(hydroxymethyl)hexahydro-4H-pyrido[1,2-a]pyrazine-1,4(6H)-dione] came in with an IC50 below 10 µM.
